“Also recorded” adds a separate entry of the source.
Legend:
[1] = tested on: OA-NOS; experiment: Sensitivity of OA-NOS to agents (Table 3 comparison)
[2] = tested on: iNOS; experiment: Nitrite accumulation in LPS-stimulated RAW 264.7 murine macrophages (Griess method); assay type: cell-based
Experimental: Effects of NSAIDs on Nitrite Accumulation. […] The expression and activity of iNOS were monitored by estimation of the stable end-product: nitrites.
concentrations of NSAIDs for 2 h followed by addition of 100 ng/ml of LPS
After 16-18 h of incubation, the medium was used to estimate the
accumulation of nitrite by the Greiss method (Green et al., Anal Biochem.
(§1) The specific activity of iNOS was determined in cellfre
(§2) extracts at a given time period as described. The nitrite and specific
activity data are representative of mean ± SD value, as determined by
student t test, for 10 and 4 independent experiments, respectively. The p
values described are compared with LPSstimulated cells. […]

[3] = tested on: iNOS; experiment: Specific activity of iNOS in cell-free extracts of RAW 264.7 cells exposed to drug during LPS induction; assay type: cell-based, murine; conditions: Mus musculus, RAW264.7, 16 h, read-out: Specific activity, % inhibition, 5 μM (Table 2: 5 μm); cell-free extracts, 16 h
Experimental: Assays for iNOS in Cell-Free Extracts. […] The reaction mixture for iNOS assay (in cell-free extracts) consists of Tris […] (pH 7.8); BSA 1 mg/ml; DTT 1 mM; CaCl2, 2 mM; FAD 10 μM; BH4 10 μM; L-arginine 30 μM; NADPH 1 mM. The assay mixture for cNOS consists of Tris 50 mM (pH 7.8); L-arginine 50 μM; calmodulin 10 μg/ml; BH4 10 μM; CaCl2 2 mM; NADPH 100 μM. RAW 264.7 cells were induced with LPS in the presence and absence of NSAIDs for 16-18 h. […] Cells were re-pelleted at 4° C. and resuspended in Tris buffer (10 mM, pH 7.4) containing 1 mg/ml each chymostatin, antipain, leupeptin and pepstatin, 1 mM DTT and 1 mM PMSF. Cells were lysed in a Polytron PT 1200 homogenizer (Kinematica AG, Switzerland) after 3 cycles of rapid freeze-thawing. The lysate was centrifuged at 16,000 rpm for 60 min at 4° C., and the supernatants were used as cell-free extracts. […] After 20 min the assays were terminated by heating the reaction mixture at 90° C. for 5 min. The precipitates were removed by centrifuging at 15,000 rpm for 20 min. Ten microliters (≈50,000 cpm) of the supernatant was spotted on activated Avicel TLC plates (Analtech, Newark, Del.). The TLC plates were developed in a solvent system consisting of ethanol:water:ammonia (80:16:4). Quantitation of the spot for L-[^3 3H]-citrulline was performed by a Bioscan System 200 Imaging Scanner. A phosphoimager can also be used for such quantification.
as §1, §2

[4] = tested on: iNOS; experiment: In vitro iNOS catalytic activity in cell-free extracts preincubated with drug (L-[3H]-arginine to L-[3H]-citrulline); assay type: biochemical, murine; conditions: 20 min preincubation; for inhibition of iNOS catalytic activity in cell-free extracts (specific activity in in vitro assay): 1 mM
[5] = tested on: iNOS; experiment: iNOS protein expression, Western blot, LPS-treated RAW 264.7 cells; assay type: cell-based, murine; conditions: Mus musculus, RAW264.7, read-out: inhibition of iNOS protein expression, 5 μm (Table 2)
Experimental: Western Blot Analysis. Equal amounts of protein (50 μg) estimated by BCA reagent (Pierce, Rockford, Ill.) were loaded onto SDS-PAGE gels and stained to verify the concentrations of various protein fractions by examining the intensities of the protein bands on the gels. Western blot analysis was carried out from the same cell extracts. The Western-blotted membrane was probed with a specific anti-iNOS monoclonal antibody, as specified by Transduction Laboratories (Lexington, Ky.). The blots were developed using the ECL Western blot system (Amersham, Arlington Heights, Ill.). Quantitation of the bands was performed using a densitometer from Molecular Dynamics (Sunnyville, Calif.).
The protein expression data are represented as
ND = not done. NS = not significant.
A Western blot analysis of iNOS protein was carried out in cells treated with […] LPS in the presence and absence of NSAIDs for 16-18 h.

[6] = tested on: OA-NOS; experiment: Nitrite release by OA-affected articular cartilage, ex vivo organ culture; assay type: cell-based, human
[7] = tested on: COX; conditions: cited from earlier work
[8] = tested on: iNOS; experiment: iNOS expression in stimulated rat chondrosarcomas; assay type: cell-based; conditions: for effect on iNOS in rat chondrosarcomas: LPS/cytokine-stimulated, L-NMMA 500 μM, indomethacin 20 μM; for inhibition of iNOS expression in rat chondrosarcomas: 72 h, added 1 h prior to cytokines
Experimental: NSAIDs were tested in: (FIG. 5A) rat chondrosarcomas stimulated with LPS, and (FIG. 5B) unstimulated OA cartilage (n=3).

[9] = cited from earlier work
[10] = tested on: rabbit chondrocytes; conditions: cited from earlier work
[11] = systemic, rodent; cited from earlier work
[12] = tested on: iNOS; conditions: cited from earlier work

TGF-β
sensitivity of OA-NOS [1]: insensitive; also recorded: not sensitive

COc1ccc2c(c1)c(CC(=O)O)c(C)n2C(=O)c1ccc(Cl)cc1 [Indomethacin, indomethacin]
extent of inhibition of nitrite accumulation [2]: not appreciably greater than that seen with 5 μM
inhibition at 5 µM ([2]; Mus musculus, RAW264.7, read-out: Nitrite released, % inhibition, 5 μM (Table 2: 5 μm), LPS 100 ng/ml, 16-18 h): ~7%
inhibition at 5 µM [3]: 2%
inhibition of iNOS specific activity in in vitro assay ([4]; 5 μM): 0%
inhibition at 5 µM [5]: 0%
rank order of inhibition of spontaneous nitrite accumulation [6]: aspirin>indomethacin>sodium salicylate
COX inhibition [7]: a potent inhibitor of COX

CC(C)Cc1ccc(C(C)C(=O)O)cc1 (stereo not drawn) [ibuprofen]
effect on iNOS in rat chondrosarcomas [8]: no significant effect on iNOS expression

CN=C(N)NCCC[C@H](N)C(=O)O [L-NMMA, N^G -monomethyl-L-arginine acetate]
inhibition of iNOS expression in rat chondrosarcomas [8]: ~ 65%
effect on iNOS in rat chondrosarcomas [8]: significant inhibition of iNOS
effect on nitrite accumulation / NOS expression in OA cartilage ([6]; unstimulated OA cartilage, L-NMMA 500 μM, indomethacin 5 μM): inhibited
paw swelling ([9]; partial inhibition of NOS): sufficient to reduce paw swelling
NO biosynthesis, paw swelling and histopathological changes in ankle joints ([9]; rat adjuvant arthritis): blocked (in a dose-dependent manner)
proteoglycan synthesis [10]: restored proteoglycan synthesis
sensitivity of OA-NOS [1]: blocked; also recorded: shows sensitivity

CC(=O)n1ccnc1 [N-acetylimidazole]
inhibition of iNOS catalytic activity in cell-free extracts (specific activity in in vitro assay) [4]: ~ 74%
inhibition of iNOS catalytic activity in cell-free extracts (specific activity in in vitro assay) ([4]; listed as NAI): 74%
cyclooxygenase and peroxidase activity of COX [7]: inhibits both the cyclooxygenase and the peroxidase activity of COX

TNF-α
arthritis morbidity / protection [11]: increase arthritis morbidity

TGF-β1: cytokine TGF-β1
iNOS expression in macrophages [12]: suppresses iNOS expression
arthritis morbidity / protection [11]: significant degree of protection

NC(=O)N1C(=O)/C(=C(\O)c2cccs2)c2cc(Cl)ccc21 [tenidap]
inhibition of iNOS expression in rat chondrosarcomas [8]: ~ 50%
effect on iNOS in rat chondrosarcomas [8]: significant inhibition of iNOS

Reference: patent publication US5759836A, “Osteoarthritis-associated inducable isoform of nitric oxide synthetase” (priority 1995, dated 1998)
